Results on seven compounds are retold here after patent US9199935B2, “Pharmaceutically active piperidine derivatives” (Acetelion Pharmaceuticals Ltd., priority 2001, dated 2015).

The IC50 is the concentration that gives 50% inhibition. For orientation: Ki means the equilibrium dissociation constant of an inhibitor or competing ligand from its target.

For experiment [1], the target named is T1, human recombinant GCS (Homo sapiens, UniProt Q16739).
T1 construct: made in house; host or cells: insect cells
T1 sequence (Q16739 1-394): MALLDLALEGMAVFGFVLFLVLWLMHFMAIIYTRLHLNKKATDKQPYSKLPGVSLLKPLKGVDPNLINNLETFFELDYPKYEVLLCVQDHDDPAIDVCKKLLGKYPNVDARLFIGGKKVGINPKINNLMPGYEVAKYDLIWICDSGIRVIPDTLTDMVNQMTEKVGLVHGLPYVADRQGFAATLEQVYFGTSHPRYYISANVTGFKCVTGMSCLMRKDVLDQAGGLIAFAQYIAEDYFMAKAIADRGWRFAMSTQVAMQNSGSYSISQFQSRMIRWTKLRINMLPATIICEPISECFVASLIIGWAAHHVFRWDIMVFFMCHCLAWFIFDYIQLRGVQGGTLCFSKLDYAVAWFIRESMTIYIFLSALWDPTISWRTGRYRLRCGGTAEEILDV
The experiment can be described thus: Human GCS inhibition, recombinant enzyme expressed in insect cells. It counts as biochemical.

Experiment [2] has as its target Porcine intestinal lactase (Sus scrofa, UniProt F1S0D7). The experiment can be described thus: Porcine intestinal lactase inhibition. The experiment is classed as biochemical. As to conditions: read-out: Porcine intestinal lactase (Ki μM).
Experiment [3] relates to glycolipid biosynthesis. Conditions: as disclosed in EP-A-0698012; cited from earlier work.
Experiment [4] concerns the target T2, Human β-galactosidase (Homo sapiens, UniProt P16278).
T2 sequence (P16278 29-677): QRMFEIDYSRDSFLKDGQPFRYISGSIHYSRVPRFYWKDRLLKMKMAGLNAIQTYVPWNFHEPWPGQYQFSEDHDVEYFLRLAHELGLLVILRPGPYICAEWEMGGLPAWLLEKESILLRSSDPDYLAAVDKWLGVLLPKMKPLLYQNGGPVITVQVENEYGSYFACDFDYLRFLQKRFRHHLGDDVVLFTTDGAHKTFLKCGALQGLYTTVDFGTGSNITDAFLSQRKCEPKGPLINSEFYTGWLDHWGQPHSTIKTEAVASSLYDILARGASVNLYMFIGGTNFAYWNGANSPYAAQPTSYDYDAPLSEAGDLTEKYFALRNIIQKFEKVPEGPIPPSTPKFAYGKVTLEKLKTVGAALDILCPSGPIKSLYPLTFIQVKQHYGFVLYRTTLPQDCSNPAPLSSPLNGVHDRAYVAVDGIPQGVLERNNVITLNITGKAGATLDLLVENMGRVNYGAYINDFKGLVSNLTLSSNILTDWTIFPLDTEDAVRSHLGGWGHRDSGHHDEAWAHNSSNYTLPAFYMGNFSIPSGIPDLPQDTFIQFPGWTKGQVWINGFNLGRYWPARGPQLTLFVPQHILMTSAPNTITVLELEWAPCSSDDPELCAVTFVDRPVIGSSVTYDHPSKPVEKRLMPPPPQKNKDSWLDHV
The experiment can be described thus: Human β-galactosidase assay. The experiment is classed as biochemical. On the procedure:
The glucosidase assays were performed as described (Biochemical Genetics, A Laboratory Manual, Oxford University Press) except that p-nitrophenyl linked substrates were used instead of methylumbelliferone linked substrates.

Experiment [5] has as its target T3, Mouse ceramide β-galactosidase (Mus musculus, UniProt P54818).
T3 sequence (P54818 43-684): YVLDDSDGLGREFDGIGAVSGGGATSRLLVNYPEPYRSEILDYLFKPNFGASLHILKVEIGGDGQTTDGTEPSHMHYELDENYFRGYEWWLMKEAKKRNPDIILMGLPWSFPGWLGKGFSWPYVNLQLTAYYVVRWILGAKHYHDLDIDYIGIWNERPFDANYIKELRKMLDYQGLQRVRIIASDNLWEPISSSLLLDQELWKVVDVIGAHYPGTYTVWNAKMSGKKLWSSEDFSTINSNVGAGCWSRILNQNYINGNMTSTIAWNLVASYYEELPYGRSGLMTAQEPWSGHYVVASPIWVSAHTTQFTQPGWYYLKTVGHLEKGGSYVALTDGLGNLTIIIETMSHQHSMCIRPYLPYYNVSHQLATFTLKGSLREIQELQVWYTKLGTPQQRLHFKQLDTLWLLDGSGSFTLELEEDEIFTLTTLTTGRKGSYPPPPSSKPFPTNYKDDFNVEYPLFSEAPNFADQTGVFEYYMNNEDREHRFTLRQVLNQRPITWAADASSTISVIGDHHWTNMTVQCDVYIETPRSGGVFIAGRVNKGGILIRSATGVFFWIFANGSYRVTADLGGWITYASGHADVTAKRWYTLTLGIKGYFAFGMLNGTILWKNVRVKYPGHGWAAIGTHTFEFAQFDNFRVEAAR
In words: Mouse ceramide β-galactosidase inhibition. The experiment is classed as biochemical.

For experiment [6], the target named is Jack bean β-galactosidase. The experiment can be described thus: Jack bean β-galactosidase inhibition. The experiment is classed as biochemical.
Experiment [7] addresses Human α-glucosidase. The experiment can be described thus: Human α-glucosidase assay, p-nitrophenyl linked substrates. It counts as biochemical.

Chain of Porcine intestinal lactase (F1S0D7 840-1898): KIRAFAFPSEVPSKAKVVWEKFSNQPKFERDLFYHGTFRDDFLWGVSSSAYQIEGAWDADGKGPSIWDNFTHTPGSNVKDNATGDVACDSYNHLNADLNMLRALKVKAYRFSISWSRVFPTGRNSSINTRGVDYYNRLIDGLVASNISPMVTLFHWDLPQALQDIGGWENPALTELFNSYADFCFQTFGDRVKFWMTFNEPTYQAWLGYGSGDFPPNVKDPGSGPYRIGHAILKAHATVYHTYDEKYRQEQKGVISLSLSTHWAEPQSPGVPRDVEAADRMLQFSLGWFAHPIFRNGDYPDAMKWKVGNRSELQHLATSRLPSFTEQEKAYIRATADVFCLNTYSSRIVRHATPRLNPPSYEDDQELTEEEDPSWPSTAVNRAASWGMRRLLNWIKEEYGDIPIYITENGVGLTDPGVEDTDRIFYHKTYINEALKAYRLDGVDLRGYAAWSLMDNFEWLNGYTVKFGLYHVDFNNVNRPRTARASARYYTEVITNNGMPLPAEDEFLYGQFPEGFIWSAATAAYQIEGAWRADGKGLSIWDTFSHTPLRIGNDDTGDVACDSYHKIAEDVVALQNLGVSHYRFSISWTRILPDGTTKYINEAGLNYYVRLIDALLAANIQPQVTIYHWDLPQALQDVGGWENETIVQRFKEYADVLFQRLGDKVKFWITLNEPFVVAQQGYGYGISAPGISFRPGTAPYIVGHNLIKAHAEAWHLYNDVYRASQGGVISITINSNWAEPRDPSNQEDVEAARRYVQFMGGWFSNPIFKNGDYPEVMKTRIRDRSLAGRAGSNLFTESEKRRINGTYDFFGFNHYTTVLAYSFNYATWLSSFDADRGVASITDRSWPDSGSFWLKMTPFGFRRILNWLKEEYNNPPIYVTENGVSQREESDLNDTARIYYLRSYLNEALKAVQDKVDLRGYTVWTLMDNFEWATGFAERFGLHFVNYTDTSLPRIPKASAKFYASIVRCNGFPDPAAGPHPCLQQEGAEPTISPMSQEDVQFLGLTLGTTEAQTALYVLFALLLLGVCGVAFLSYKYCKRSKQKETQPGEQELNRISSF

For the compound `CCCCCN1CC(O)C(O)C(O)C1CO` [Example 3, 3,4,5-Piperidinetriol, 1-pentyl-2-(hydroxymethyl)-, (2S,3R,4R,5S)], the concentration for half-maximal inhibition (IC50) in experiment [1] came out at 4 µM. For the compound `CCCCN1CC(O)C(O)C(O)C1CO` [Example 5, 3,4,5-Piperidinetriol, 1-butyl-2-hydroxymethyl)-, (2S,3S,4R,5S)], in experiment [2], the Ki turned out to be 8000 µM. Regarding `CCCCN1C[C@@H](O)[C@H](O)[C@H](O)[C@@H]1C` [NB-DFJ], the “inhibition of glycolipid biosynthesis” value in experiment [3] is listed as “do not act as inhibitors”. Consider `CCCCN1C[C@H](O)[C@@H](O)[C@@H](O)[C@H]1CO` [NB-DGJ, N-butyldeoxygalactonojirimycin], for which the Ki in experiment [2] stood at 85 µM; in experiment [4] it was 40 µM. The figures for the IC50 in experiment [5] and in experiment [6] were 370 µM and 3.4 µM, respectively. As to `CCCCN1C[C@@H](O)[C@@H](O)[C@H](O)[C@H]1CO` [NB-DMJ], in experiment [3], the “inhibition of glycolipid biosynthesis” value is recorded as “do not act as inhibitors”. `CCCCN1C[C@H](O)[C@@H](O)[C@H](O)[C@H]1CO` [NB-DNJ, N-butyldeoxynojirimycin]: the IC50 in experiment [7] was < 20 µM. As for `CCCCN1C[C@H](NC(C)=O)[C@@H](O)[C@H](O)[C@H]1CO` [NB-NAG], the “inhibition of glycolipid biosynthesis” value in experiment [3] is listed as “do not act as inhibitors”.
